Where a name gives a salt, the structure may show the parent alone.
| SMILES | flash point [°C] |
| --- | --- |
| CC(C)CCCCCCOC(=O)C1CCCCC1C(=O)OCCCCCCC(C)C (stereo unspecified) [bis(7-methyloctyl) cyclohexane-1,2-dicarboxylate] | 224.00 |
| CC(C)CCCCCCCOC(=O)c1ccccc1C(=O)OCCCCCCCC(C)C [bis(8-methylnonyl) benzene-1,2-dicarboxylate] | 232.00 |
| CC(=O)C=C=O [but-1-ene-1,3-dione] | 33.00 |
| OC=CCCO [but-1-ene-1,4-diol] | 128.00 |
| C=CCC [but-1-ene] | -79.00 |
| OCC=CCO [but-2-ene-1,4-diol] | 128.00 |
| CC=CC(=O)O [but-2-enoic acid] | 88.00 |
| C=CC(C)=O [but-3-en-2-one] | -7.00 |
| C=CC=C [buta-1,3-diene] | -76.00 |
| CCCCO.CCCCO.CCCCO.CCCCO.[Ti] [butan-1-ol;titanium] | 77.00 |
| CCC(C)N (stereo unspecified) [butan-2-amine] | -9.00 |
| CCC(C)=O [butan-2-one] | -3.00 |
| CCC(C)OC(C)=O (stereo unspecified) [butan-2-yl acetate] | 17.00 |
| OCCCCO [butane-1,4-diol] | 119.00 |
| CCCCS [butane-1-thiol] | 13.00 |
| N#CCCC#N [butanedinitrile] | 132.00 |
| CCCC(=O)Cl [butanoyl chloride] | 22.00 |

| SMILES | flash point [°C] |
| --- | --- |
| CCCCOC(C)=O [butyl acetate] | 22.00 |
| C=CC(=O)OCCCC [butyl prop-2-enoate] | 49.00 |
| CCCCc1ccccc1 [butylbenzene] | 71.00 |
| C=CCl [chloroethene] | -79.00 |
| ClCc1ccccc1 [chloromethylbenzene] | 67.00 |
| N#CN [cyanamide] | 141.00 |
| C1=CCCC=CCCC=CCC1 [cyclododeca-1,5,9-triene] | 71.00 |
| CCCCOC(=O)c1ccccc1C(=O)OCCCC [dibutyl benzene-1,2-dicarboxylate] | 157.00 |
| CCCCOP(=O)(O)OCCCC [dibutyl hydrogen phosphate] | 188.00 |
| CCC[CH2][Sn]([Cl])([Cl])[CH2]CCC [dibutyl(dichloro)stannane] | 168.00 |
| CCCCCCCCCCOC(=O)c1ccccc1C(=O)OCCCCCCCCCC [didecyl benzene-1,2-dicarboxylate] | 232.00 |
| CCCCCCOC(=O)c1ccccc1C(=O)OCCCCCC [dihexyl benzene-1,2-dicarboxylate] | 177.00 |
| COC(=O)c1ccccc1C(=O)OC [dimethyl benzene-1,2-dicarboxylate] | 146.00 |
| [CH3][Hg][CH3] [dimethylmercury] | 5.00 |
| CCCCCCCCCOC(=O)c1ccccc1C(=O)OCCCCCCCCC [dinonyl benzene-1,2-dicarboxylate] | 216.00 |
| CCCCCOC(=O)c1ccccc1C(=O)OCCCCC [dipentyl benzene-1,2-dicarboxylate] | 181.00 |
| CCCCCCCCCCCCCOC(=O)c1ccccc1C(=O)OCCCCCCCCCCCCC [ditridecyl benzene-1,2-dicarboxylate] | 238.00 |

Now from value to compound:

| flash point [°C] | SMILES |
| --- | --- |
| 52.00 | CCC(C)c1ccccc1 (stereo unspecified) [butan-2-ylbenzene] |
| 52.00 | CC(N)CCN (stereo unspecified) [butane-1,3-diamine] |
| 27.00 | CC(=O)C(C)=O [butane-2,3-dione] |
| 160.00 | O=C(O)CCC(=O)O [butanedioic acid] |
| 71.00 | CCCCOC(=O)C(C)O (stereo unspecified) [butyl 2-hydroxypropanoate] |
| 53.00 | CCCCOC(=O)CC(C)C [butyl 3-methylbutanoate] |
| 180.00 | CCCCCCCC/C=C\CCCCCCCC(=O)OCCCC [butyl (Z)-octadec-9-enoate] |
| 107.00 | CCCCOC(=O)c1ccccc1 [butyl benzoate] |
| 18.00 | CCCCOC=O [butyl formate] |
| 38.00 | CCCCOC(=O)CC [butyl propanoate] |
| -18.00 | C[Si](C)(C)Cl [chloro(trimethyl)silane] |
| 32.00 | ClC1CCCCC1 [chlorocyclohexane] |
| -50.00 | CCCl [chloroethane] |
| 151.00 | O=c1ccc2ccccc2o1 [chromen-2-one] |
| 36.00 | CC(C)c1ccccc1 [cumene] |
| 26.00 | C1=CCCC=C1 [cyclohexa-1,3-diene] |
| 43.00 | SC1CCCCC1 [cyclohexanethiol] |
| 44.00 | O=C1CCCCC1 [cyclohexanone] |
| -12.00 | C1=CCCCC1 [cyclohexene] |
| 4.00 | [Ni+2].c1cc[cH-]c1.c1cc[cH-]c1 [cyclopenta-1,3-diene;nickel(2+)] |
| 53.00 | C=CCCCCCCCC [dec-1-ene] |

| flash point [°C] | SMILES |
| --- | --- |
| 85.00 | CCCCCCCCCC=O [decanal] |
| 98.00 | CCCCCCCCCCS [decane-1-thiol] |
| 220.00 | O=C(O)CCCCCCCCC(=O)O [decanedioic acid] |
| 113.00 | CCCCCCCCCC(=O)O [decanoic acid] |
| 107.00 | CCCCCCCCCCc1ccccc1 [decylbenzene] |
| 178.00 | CCCCOC(=O)CCCCCCCCC(=O)OCCCC [dibutyl decanedioate] |
| 113.00 | CCCCOC(=O)CCCCC(=O)OCCCC [dibutyl hexanedioate] |
| 142.00 | Cl[Si](Cl)(c1ccccc1)c1ccccc1 [dichloro(diphenyl)silane] |
| 2.00 | CCCCCCCCCCCCCCCCCC(=O)O.O.[Cl][Cr][Cl].[Cl][Cr][Cl] [dichlorochromium;octadecanoic acid;hydrate] |
| 93.00 | CCOC(=O)CC(=O)OCC [diethyl propanedioate] |
| 163.00 | CCCCCCOC(=O)CCCCC(=O)OCCCCCC [dihexyl hexanedioate] |
| 204.00 | CCCCCCOC(=O)CCCCCCCC(=O)OCCCCCC [dihexyl nonanedioate] |
| 138.00 | COC(=O)c1cccc(C(=O)OC)c1 [dimethyl benzene-1,3-dicarboxylate] |
| 153.00 | COC(=O)c1ccc(C(=O)OC)cc1 [dimethyl benzene-1,4-dicarboxylate] |
| 107.00 | COC(=O)CCCCC(=O)OC [dimethyl hexanedioate] |
| 196.00 | CCCCCCCCOC(=O)CCCCC(=O)OCCCCCCCC [dioctyl hexanedioate] |
| 93.00 | CCCOC(=O)c1ccc(C(=O)OCCC)nc1 [dipropyl pyridine-2,5-dicarboxylate] |
| 100.00 | C=CCCCCCCCCCC [dodec-1-ene] |
| 127.00 | CCCCCCCCCCCCO [dodecan-1-ol] |
| 88.00 | CCCCCCCCCCCCS [dodecane-1-thiol] |
| 135.00 | CCCCCCCCCCCCc1ccccc1 [dodecylbenzene] |
